Reference: paper PMC10608985, “Retention Behavior of Anticancer Thiosemicarbazides in Biomimetic Chromatographic Systems and In Silico Calculations” (Molecules, 2023)

What was measured:
[1] = HPLC lipophilicity on IAM (immobilized artificial membrane, phosphatidylcholine) stationary phase; type: physicochemical; conditions: pH 7.4; for Log k IAM: Table S2; for log kw IAM: intercept, linear extrapolation to water; for log kw IAM / -S IAM: ACN/20 mM phosphate buffer; for -S IAM: slope of Soczewiński–Wachtmeister equation
Description: (§1) For the evaluation of the compounds the following stationary phases were used: C-18; biomimetic, IAM; cholesterol (Chol); immobilized proteins HSA and AGP. For the lipophilicity determination, MeOH (C-18, Chol) or ACN (IAM) were applied as the organic modifiers. The measurements were performed at pH 7.4 of the mobile phase. The regular changes in the retention of all solutes used as organic modifier content in the mobile phase on three studied stationary phases were found. It is expressed by the Soczewiński–Wachtmeister Equation (1):log k = log kw + S (% organic modifier)(1) where log kw—the intercept; S—the slope of regression curve. […] Log kw as well as S parameters are commonly applied as lipophilicity descriptors.
(§2) HPLC measurements were performed using a liquid chromatograph Knauer (Knauer, Berlin, Germany) with a dual pump, a 20 µL simple injection valve, and a UV–visible detector. The compounds were detected under UV light at 280 nm at room temperature. The retention time of an unretained solute (t0) was determined by the injection of a small amount of citric acid dissolved in water.
A Rexchrom IAM.PC.DD2 (12 μm, 100 × 4.6 mm, 300 Å) (Regis Technologies, Morton Grove, IL, USA) column was used as the stationary phase. The compounds were dissolved at a concentration of 0.5 mg × mL^−1 in MeOH. The mobile phases consisted of different volume fractions of ACN and 20 mM phosphate buffer; the aqueous phase maintained a pH = 7.4 (0.02 M KH2PO4, Na2HPO4 and 0.15 M KCl). The acetonitrile concentration ranged from 0.05 to 0.4 (v/v), depending on the structure of compound, at 0.05 intervals (Table S2 in the Supplementary Materials). The flow rate was 1 mL × min^−1.

[2] = HPLC lipophilicity on cholesterol (Chol) stationary phase; type: physicochemical; conditions: pH 7.4; for Log k Chol: Table S3; for log kw Chol: intercept, linear extrapolation to water; for log kw Chol / -S Chol: MeOH/20 mM acetate buffer; for -S Chol: slope of Soczewiński–Wachtmeister equation
Description: as §1, §2
Cogent 4 UDC Cholesterol (150 × 2.1 mm, 4 µm) MicroSolv Technology Corporation (Leland, NC, USA) column was used. The mobile phase consisted of different volume mixtures of MeOH as the organic modifier and 20 mM acetate buffer as the aqueous phase, to obtain pH = 7.4. The concentrations of the organic modifier were in the range from 0.3 to 0.8 (v/v) with step 0.05 or 0.1 (Table S3 in the Supplementary Materials). The flow rate was 0.35 mL × min^−1.

[3] = molecular target: T1, human serum albumin (HSA) (Homo sapiens, UniProt P02768); experiment: HPLC on immobilized HSA column, affinity and % plasma–protein binding; type: in vitro ADME; conditions: for log K HSA: binding equilibrium constant from calibration curve (Equation 8) of log k HSA; for log k HSA: retention on HSA column, 50 mM ammonium acetate pH 7.4 / propan-2-ol 85/15 (v/v); for fraction unbound: human, pH 7.4, % plasma–protein binding converted from log K HSA (Equation 10), read-out: %PPB HSA (converted)
T1 construct: purchased Chiralpac
Description: (§3) Measurements on HSA and AGP immobilized protein columns were carried out with […] isopropanol content in the aqueous mobile phase.
(§4) The standard calibration curve was used to predict log K values (K—binding equilibrium constant) of investigated compounds to HSA and AGP. Next, the log K values were converted into a percentage of plasma–protein binding (%PPB) of the compounds (Table 2). […] It is the lowest for compound 16 with -NO2 substituent, unsubstituted compound 1, and fluorine derivatives 2 and 9. In a group of […] derivatives in the same position of the phenyl ring, the %PPB to AGP increases with the increase in the atomic weight of the halogen atom and the lipophilicity of the molecule.
as §2
(§5) A human serum albumin (HSA) immobilized on the 5 µm silica gel column 100 × 3 mm (Chiralpac) and an α1-acid glycoprotein (AGP) immobilized on the 5 µm silica gel column 100 × 4 mm (Chiralpac) were used. The compounds were dissolved at 0.5 mg/mL concentration in 50% propan-2-ol and ammonium acetate solution (pH = 7.4) mixtures for HSA measurements. The mobile phase was composed of 50 mM ammonium acetate solution (pH = 7.4) and propan-2-ol at 85/15 (v/v) for AGP, respectively. The flow of mobile phases was 0.5 mL×min^−1. Log k values for the selected mobile phase were determined for all studied compounds and standard substances. The % protein plasma binding (% PPB) values were calculated from the calibration curve according to Valko et al..
(§6) Calibration of the protein columns: The column performance check and the calibration check were performed before measurements. The racemic mixture of warfarin was used for their performance evaluation. The following calibration set of drugs was applied: bromazepam, carbamazepine, diclofenac, nicardipine, nizatidine, piroxicam for HSA and bromazepam, chlorpromazine, imipramine, nicardipine, nizatidine, propranolol, and warfarin for AGP. The analytical standards were purchased from Sigma Aldrich Steinhen, Steinheim am Albuch, Germany). The drugs were dissolved at 0.5 mg/mL concentration in 50% propan-2-ol and ammonium acetate solution mixtures (pH = 7.4). The obtained log k values from HPLC were plotted against the log K values (K—binding equilibrium constant, log K—linearized PPB) based on the literature data for plasma–protein binding (%, PPB). The following relationships were obtained: log KHSA = 0.2513 (±0.0984) + 1.0525 (±0.1171) log k HSA(8) n=6, R=0.9761, R^2 = 0.9528, Radj2 = 0.9410, s = 0.1948 log KAGP = 0.1733 (±0.0574) + 0.8902 (±0.0787) log k AGP(9) n=7, R=0.9810, R^2 = 0.9623, Radj2 = 0.9548, s = 0.1113
(§7) Log K values were converted into %PPB using the following equation [15]:(10) %PPB=101×10^logK/1+10^logK

[4] = tested on: α1-acid glycoprotein (AGP); experiment: HPLC on immobilized AGP column, affinity and % plasma–protein binding; type: in vitro ADME, human; conditions: for log K AGP: binding equilibrium constant from calibration curve (Equation 9) of log k AGP; for fraction unbound: human, pH 7.4, % plasma–protein binding converted from log K AGP (Equation 10), read-out: %PPB AGP (converted); for log k AGP: retention on AGP column, 50 mM ammonium acetate pH 7.4 / propan-2-ol 85/15 (v/v)
Description: as §3, §4, §2, §5, §6, §7

[5] = design: method as in Kozyra et al. [31]; conditions: MeOH/20 mM acetate buffer, pH 7.4, ref Kozyra et al. [31], cited from earlier work; for log kw C-18: intercept of Soczewiński–Wachtmeister equation (water as mobile phase); for -S C-18: slope of Soczewiński–Wachtmeister equation

T1 sequence (P02768 25-609): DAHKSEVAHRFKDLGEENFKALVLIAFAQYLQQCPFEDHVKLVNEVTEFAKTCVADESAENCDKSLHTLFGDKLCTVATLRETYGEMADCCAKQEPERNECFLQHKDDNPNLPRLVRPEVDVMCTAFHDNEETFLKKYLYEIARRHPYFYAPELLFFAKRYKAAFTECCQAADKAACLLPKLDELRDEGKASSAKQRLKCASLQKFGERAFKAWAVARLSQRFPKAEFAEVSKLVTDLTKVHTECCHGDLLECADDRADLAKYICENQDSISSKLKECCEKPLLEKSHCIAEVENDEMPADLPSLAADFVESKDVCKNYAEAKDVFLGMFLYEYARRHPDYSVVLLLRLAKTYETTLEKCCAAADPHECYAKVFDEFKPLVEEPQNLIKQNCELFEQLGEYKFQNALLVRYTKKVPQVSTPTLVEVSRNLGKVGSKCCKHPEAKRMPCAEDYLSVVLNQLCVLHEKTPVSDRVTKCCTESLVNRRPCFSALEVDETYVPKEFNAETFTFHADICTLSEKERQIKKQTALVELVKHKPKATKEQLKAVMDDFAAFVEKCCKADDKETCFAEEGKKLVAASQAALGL

| SMILES | Log k IAM ([1]; ACN 0.15 v/v in mobile phase) | Log k IAM ([1]; ACN 0.20 v/v in mobile phase) | Log k IAM ([1]; ACN 0.25 v/v in mobile phase) | Log k IAM ([1]; ACN 0.30 v/v in mobile phase) | Log k IAM ([1]; ACN 0.35 v/v in mobile phase) | log kw IAM [1] | -S IAM [1] | Log k Chol ([2]; MeOH 0.40 v/v in mobile phase) | Log k Chol ([2]; MeOH 0.45 v/v in mobile phase) | Log k Chol ([2]; MeOH 0.50 v/v in mobile phase) | Log k Chol ([2]; MeOH 0.60 v/v in mobile phase) | Log k Chol ([2]; MeOH 0.80 v/v in mobile phase) | log kw Chol [2] | -S Chol [2] | log K HSA [3] | log k HSA [3] | log K AGP [4] | fraction unbound [4] | log k AGP [4] | log kw C-18 [5] | also measured |
| --- | --- | --- | --- | --- | --- | --- | --- | --- | --- | --- | --- | --- | --- | --- | --- | --- | --- | --- | --- | --- | --- |
| O=C(COc1ccccc1)NNC(=S)Nc1cccc(I)c1 [Compound 8] | 1.304 | 0.952 | 0.573 | 0.088 | -0.074 | 2.3083 | 6.9157 | 1.443 | 1.026 | 0.834 | 0.522 | -0.984 | 3.7019 | 5.6623 | 2.1342 | 1.7890 | 0.8556 | 0.114 | 0.7664 | 3.0072 | Log k IAM ([1]; ACN 0.40 v/v in mobile phase): -0.404; Log k Chol ([2]; MeOH 0.70 v/v in mobile phase): -0.165; -S C-18 [5]: 4.9651 |
| O=C(COc1ccccc1)NNC(=S)Nc1cccc(Cl)c1 [Compound 6] | 0.982 | 0.647 | 0.333 | -0.082 | -0.247 | 1.9101 | 6.3395 | 1.016 | 0.766 | 0.422 | 0.160 | -0.975 | 2.9670 | 4.8849 | 1.3217 | 1.0170 | 0.6152 | 0.187 | 0.4964 | 2.7672 | Log k IAM ([1]; ACN 0.10 v/v in mobile phase): 1.270; Log k Chol ([2]; MeOH 0.35 v/v in mobile phase): 1.270; fraction unbound [3]: 0.036; -S C-18 [5]: 4.8532 |
| O=C(COc1ccccc1)NNC(=S)Nc1ccccc1I [Compound 4] | 0.893 | 0.642 | 0.451 | -0.029 | -0.138 | 1.7099 | 5.3942 | 0.747 | 0.519 | 0.244 | -0.037 | -0.938 | 2.3754 | 4.1215 | 1.5037 | 1.1899 | 0.6707 | 0.168 | 0.5588 | 2.4824 | Log k IAM ([1]; ACN 0.10 v/v in mobile phase): 1.158; Log k Chol ([2]; MeOH 0.30 v/v in mobile phase): 1.105; Log k Chol ([2]; MeOH 0.35 v/v in mobile phase): 0.974; fraction unbound [3]: 0.021; -S C-18 [5]: 4.4182 |
